Test results: patent US20110190503A1, “Thiazolopyridin-2-yloxy-phenyl and thiazolopyrazin-2-yloxy-phenyl amines as modulators of leukotriene A4 hydrolase” (Janssen Pharmaceutical NV, priority 2008, published 2011)
Structures can show the parent of a compound that is named as a salt. Where two headings read alike, the source gives them in different places.

What was measured:
[1] = target: T1, recombinant human LTA4 hydrolase (rhLTA4H) (Homo sapiens, UniProt P09960); assay: Recombinant human LTA4 hydrolase assay for LTA4 hydrolase inhibitor activity; assay type: biochemical; settings: rhLTA4H, LTA4 substrate, LTB4 by immunoassay; single determination or average; read-out: IC50
T1 construct: made in house; host or cells: Spodoptera frugiperda (Sf-9) cells, recombinant baculovirus (pFastBac1)
T1 sequence (P09960 1-611): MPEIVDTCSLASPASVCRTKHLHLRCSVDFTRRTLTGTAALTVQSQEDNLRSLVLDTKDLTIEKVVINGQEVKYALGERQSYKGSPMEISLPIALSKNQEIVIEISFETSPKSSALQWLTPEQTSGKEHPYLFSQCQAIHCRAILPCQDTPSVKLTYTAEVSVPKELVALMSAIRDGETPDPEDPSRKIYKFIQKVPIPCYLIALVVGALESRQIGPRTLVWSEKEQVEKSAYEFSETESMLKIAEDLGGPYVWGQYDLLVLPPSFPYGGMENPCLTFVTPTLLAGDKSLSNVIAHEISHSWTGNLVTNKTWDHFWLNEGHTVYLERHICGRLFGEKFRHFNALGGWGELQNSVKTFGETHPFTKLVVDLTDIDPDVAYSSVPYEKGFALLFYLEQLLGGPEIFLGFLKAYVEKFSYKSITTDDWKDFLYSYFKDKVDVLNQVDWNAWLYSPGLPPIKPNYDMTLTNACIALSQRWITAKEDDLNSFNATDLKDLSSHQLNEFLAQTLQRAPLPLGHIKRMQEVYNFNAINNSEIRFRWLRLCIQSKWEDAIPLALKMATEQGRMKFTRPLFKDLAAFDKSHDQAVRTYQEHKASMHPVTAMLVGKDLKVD
Outline: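 Recombinant human LTA4H from baculovirus-infected Sf-9 cells (10 ng) pre-incubated 10 min at rt with compound (10% DMSO in dilutions), then reacted with free-acid LTA4 for 30 min at rt. LTB4 measured by ELISA; IC50 by nonlinear regression. Values are single determinations or averages.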

[2] = test system: LTB4 production by calcium ionophore-stimulated murine blood; assay: LTB4 production by calcium ionophore-stimulated murine blood for LTA4H inhibitor activity; assay type: cell-based, CD-1 mice; settings: Mus musculus
Outline: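 Heparinized CD-1 mouse blood pre-incubated with compound 15 min at 37° C, then stimulated with calcium ionophore A23187 (7 μg/mL final) for 30 min. LTB4 in supernatant measured by enzyme immunoassay; values are single or averaged determinations, with SD for n≥3.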

[3] = test system: ex vivo stimulated LTB4 production; assay: Murine arachidonic acid-induced inflammation model: ex vivo stimulated LTB4 production (% Inh. LTB4); settings: Mus musculus; female Balb/c mice, 30 mg/kg oral gavage; blood taken 3 h after arachidonic acid, ex vivo A23187 stimulation; number of determinations in parentheses
Description: (§1) Assay 4: Murine Arachidonic Acid-Induced Inflammation Model
(§2) LTA4H inhibitor compounds of the present invention were dissolved in 20% cyclodextran/H2O at a concentration of 3 mg/mL. The solutions were administered by oral gavage to female Balb/c mice weighing approximately 20 grams each (0.2 mL per mouse, 30 mg of LTA4H inhibitor compound per kg). Sixty minutes after being administered an LTA4 inhibitor, each mouse received topical application of 20 μL of arachidonic acid (100 mg/mL in acetone) to the left ear and 20 μL of acetone only to the right ear. After 3 h, the mice were sacrificed, blood was withdrawn in heparinized syringes, and 8 mm ear biopsies were taken. Ear biopsies were weighed to determine edema and then frozen at −80° C. until needed for determination of neutrophil influx.
One hundred-microliter aliquots of heparinized blood were added to wells of a microtiter plate, along with equal volumes of RPMI-1640 medium, and calcium ionophore A23187 was added to each sample well (final concentration=[…]). The microtiter plate contents were incubated for 30 min at 37° C. in a humidified incubator. The reaction was terminated by centrifugation (833×g, 10 min at 4° C.). Supernatants were analyzed for LTB4 by a commercially available enzyme-linked immunoassay (Cayman Chemical Co.) in accordance with the manufacturer's instructions. The percent inhibition of ex vivo stimulated LTB4 production (% Inh. LTB4) was determined by comparison to animals treated identically except that the solution administered by oral gavage was devoid of inhibitor compound.
(§3) The number of determinations is indicated in parentheses following each value

neutrophil influx = assay: Murine arachidonic acid-induced inflammation model: neutrophil influx in ear, myeloperoxidase activity (% Inh. MPO); assay type: in vivo; settings: Mus musculus, female Balb/c mice, 30 mg/kg oral gavage, ear biopsy 3 h after topical arachidonic acid, number of determinations in parentheses
Description: as §1, §2
Neutrophil influx was quantified by measuring the activity of myeloperoxidase (MPO), a neutrophil-specific enzyme. The ear biopsies were homogenized in 0.5 mL extraction buffer (0.3 M sucrose, 0.22% (w/v) hexadecyl trimethyl ammonium bromide (CTAB), and 2.5 mM citrate prepared from 0.5 M citrate stock solution (pH 5.0)), in a Fast-Prep-24 (MP™) (40 seconds at 6 mps). Debris was removed by centrifugation at 14000×g for 10 min. Aliquots of 10 μL of the resulting supernatant were added to wells of a microtiter plate, along with 90-μL aliquots of dilution buffer (10 mM citrate, 0.22% CTAB), followed by addition of 20 μL TMB liquid substrate system (Sigma Chemical Co.) to each sample well. The microtiter plate contents were held at room temperature until the sample with the highest concentration of MPO reached an absorbance value of 0.4 at 650 nm. The reaction was stopped by addition of 50 μL 1 M H2SO4 to each sample well, and the myeloperoxidase activity in each sample was determined from the absorbance at 405 nm. The background value from the right ear, treated only with acetone, was subtracted from that for the left ear, treated with arachidonic acid in acetone, for each animal. The percent inhibition of neutrophil influx (% Inh. MPO) by compounds of the invention was determined by comparison to animals treated identically, except that the solution administered by oral gavage was devoid of inhibitor compound.
as §3

[4] = murine blood diluted 1 in 15, calcium ionophore A23187, LTB4 by immunoassay, read-out: IC50

SMILES | IC50 [1] | IC50 [2, 4] | inhibition at 30 mg/kg [3] | inhibition in vivo at 30 mg/kg (neutrophil influx) | IC50 [2]
CS(=O)(=O)N[C@H]1C[C@H]2CC[C@@H](C1)N2Cc1ccc(Oc2nc3ncccc3s2)cc1 [Example 182, meso-N-[(3-endo)-8-{[4-([1,3]Thiazolo[4,5-b]pyridin-2-yloxy)phenyl]methyl}-8-azabicyclo[3.2.1]oct-3-yl]methanesulfonamide] | 0.0019 µM | 0.024 µM |  |  | 
OC1(c2ccc(Cl)cc2)CCN(Cc2ccc(Oc3nc4ncccc4s3)cc2)CC1 [Example 104, 4-(4-Chlorophenyl)-1-[4-([1,3]thiazolo[4,5-b]pyridin-2-yloxy)benzyl]piperidin-4-ol] | 0.0019 µM | 0.028 µM |  |  | 
NC(=O)N[C@@H]1C[C@H]2CC[C@@H](C1)N2CCOc1ccc(Oc2nc3ncccc3s2)cc1 [Example 142, meso-1-[(3-exo)-8-{2-[4-([1,3]Thiazolo[4,5-b]pyridin-2-yloxy)phenoxy]ethyl}-8-azabicyclo[3.2.1]oct-3-yl]urea hydrochloride] | 0.008 µM |  |  |  | 1600 µM
NC(=O)N[C@H]1C[C@H]2CC[C@@H](C1)N2Cc1ccc(Oc2nc3ncccc3s2)cc1 [Example 278, meso-1-{(3-endo)-8-[4-([1,3]Thiazolo[4,5-b]pyridin-2-yloxy)benzyl]-8-azabicyclo[3.2.1]oct-3-yl}urea] | 0.002 µM | 0.28 µM |  |  | 
NC(=O)N1[C@@H]2CC[C@H]1CN(CCOc1ccc(Oc3nc4ncccc4s3)cc1)C2 [Example 149, meso-3-{2-[4-([1,3]Thiazolo[4,5-b]pyridin-2-yloxy)phenoxy]ethyl}-3,8-diazabicyclo[3.2.1]octane-8-carboxamide] | 0.063 µM | 0.18 µM |  |  | 
c1cncc(OC2CCN(CCOc3ccc(Oc4nc5ncccc5s4)cc3)CC2)c1 [Example 4, 2-(4-{2-[4-(Pyridin-3-yloxy)piperidin-1-yl]ethoxy}phenoxy)[1,3]thiazolo[4,5-b]pyridine] | 0.009 µM | 0.054 µM |  |  | 
CC(=O)N[C@H]1C[C@H]2CC[C@@H](C1)N2Cc1ccc(Oc2nc3nccc(C)c3s2)cc1 [Example 289, meso-endo-N-[8-{4-[(7-Methyl[1,3]thiazolo[4,5-b]pyridin-2-yl)oxy]benzyl}-8-azabicyclo[3.2.1]oct-3-yl]acetamide] | 0.009 µM | 0.542 µM |  |  | 
OC1(c2cccc(C(F)(F)F)c2)CCN(CCOc2ccc(Oc3nc4nccnc4s3)cc2)CC1 [Example 24, 1-{2-[4-([1,3]Thiazolo[4,5-b]pyrazin-2-yloxy)phenoxy]ethyl}-4-[3-(trifluoromethyl)phenyl]piperidin-4-ol] | 0.052 µM | 0.75 µM |  |  | 

More lines, main results first:

IC50 [1] | IC50 [2, 4] | SMILES | inhibition at 30 mg/kg [3] | inhibition in vivo at 30 mg/kg (neutrophil influx) | IC50 [2]
0.0021 µM | 0.039 µM | c1cnc2nc(Oc3ccc(CN4CCCC4)cc3)sc2c1 [Example 84, 2-[4-(Pyrrolidin-1-ylmethyl)phenoxy][1,3]thiazolo[4,5-b]pyridine] | 53.9% | 72% | 
0.012 µM | 0.04 µM | NC(=O)C1CCN(CCc2ccc(Oc3nc4ncccc4s3)cc2)CC1 [Example 66, 1-{2-[4-([1,3]Thiazolo[4,5-b]pyridin-2-yloxy)phenyl]ethyl}piperidine-4-carboxamide] | 76.2% | 60% | 
0.042 µM | 0.11 µM | CC(C)(O)C1CCN(Cc2ccc(Oc3nc4ncccc4s3)cc2)CC1 [Example 89, 2-{1-[4-([1,3]Thiazolo[4,5-b]pyridin-2-yloxy)benzyl]piperidin-4-yl}propan-2-ol] | 79.5% | 79.1% | 
 | 0.068 µM | NC(=O)C1CCN(Cc2ccc(Oc3nc4ncc(F)cc4s3)cc2)CC1 [Example 283, 1-{4-[(6-Fluoro[1,3]thiazolo[4,5-b]pyridin-2-yl)oxy]benzyl}piperidine-4-carboxamide] | 78.2% | 88.3% | 
0.008 µM | 0.045 µM | C[C@H](c1ccccc1)N(C)CCc1ccc(Oc2nc3ncccc3s2)cc1 [Example 58, (1R)—N-Methyl-1-phenyl-N-{2-[4-([1,3]thiazolo[4,5-b]pyridin-2-yloxy)phenyl]ethyl}ethanamine] |  |  | 
0.001 µM | 0.013 µM | CC1CCN(Cc2ccc(Oc3nc4ncccc4s3)cc2)CC1 [Example 97, 2-{4-[(4-Methylpiperidin-1-yl)methyl]phenoxy}[1,3]thiazolo[4,5-b]pyridine] |  |  | 
0.023 µM | 0.079 µM | CC(=O)N1CC2CC(CN(Cc3ccc(Oc4nc5ncccc5s4)cc3)C2)C1 [Example 294, meso-2-(4-{[7-Acetyl-3,7-diazabicyclo[3.3.1]non-3-yl]methyl}phenoxy)[1,3]thiazolo[4,5-b]pyridine] |  |  | 
0.011 µM | 0.029 µM | OCC1CCN(Cc2ccc(Oc3nc4ncccc4s3)cc2)CC1 [Example 95, {1-[4-([1,3]Thiazolo[4,5-b]pyridin-2-yloxy)benzyl]piperidin-4-yl}methanol] |  |  | 
0.055 µM | 0.52 µM | FC1(F)CCN(Cc2ccc(Oc3nc4ncccc4s3)cc2)C1 [Example 93, 2-{4-[(3,3-Difluoropyrrolidin-1-yl)methyl]phenoxy}[1,3]thiazolo[4,5-b]pyridine] |  |  | 
0.002 µM | 0.008 µM | c1cnc(OC2CCN(Cc3ccc(Oc4nc5ncccc5s4)cc3)CC2)nc1 [Example 99, 2-(4-{[4-(Pyrimidin-2-yloxy)piperidin-1-yl]methyl}phenoxy)[1,3]thiazolo[4,5-b]pyridine] |  |  | 
0.008 µM | 0.05 µM | C[C@H]1COCCN1Cc1ccc(Oc2nc3ncccc3s2)cc1 [Example 88, 2-(4-{[(3S)-3-Methylmorpholin-4-yl]methyl}phenoxy)[1,3]thiazolo[4,5-b]pyridine] |  |  | 
0.087 µM | 0.178 µM | c1cnc2nc(Oc3ccc(CN4CCC(N5CCCCC5)CC4)cc3)sc2c1 [Example 256, 1′-[4-([1,3]Thiazolo[4,5-b]pyridin-2-yloxy)benzyl]-1,4′-bipiperidine] |  |  | 
0.003 µM | 0.051 µM | CN(CCOc1ccc(Oc2nc3ncccc3s2)cc1)Cc1ccccc1 [Example 36, N-Benzyl-N-methyl-2-[4-([1,3]thiazolo[4,5-b]pyridin-2-yloxy)phenoxy]ethanamine] |  |  | 
